Experimental data taken from article PMC7073886, “Structure–Bioactivity Relationships of Lapatinib Derived Analogs against Schistosoma mansoni” (ACS Medicinal Chemistry Letters, 2020).
≈ marks a conversion by molar mass, not a printed value.

What was measured:
[1] = Human plasma protein binding (equilibrium dialysis); format: in vitro ADME; details: read-out: human PPB (plasma protein binding) (converted); for fraction unbound at 10 µM: pH 7.4, 37 °C; for fraction unbound: pH 7.4, 10 µM, 37 °C
Rat hepatocyte Clint = format: in vitro ADME; details: rat hepatocytes, intrinsic clearance; for hepatocyte CLint: read-out: RH CLint
[2] = Human liver microsomal Clint; format: in vitro ADME; details: for microsomal CLint: read-out: HLM Clint
[3] = Aqueous pH 7.4 solubility; format: physicochemical; details: aqueous buffer, thermodynamic from solid; phosphate buffer pH 7.4, 25 °C, 20-24 h; read-out: aq sol (aqueous solubility)
adult S. mansoni = test: Phenotypic screen of adult S. mansoni worms, severity scores and descriptors; format: cell-based, Schistosoma mansoni; details: for Descriptors (10 µM) 1 h / Severity Scores (10 μM) 1 h / Descriptors (10 µM) 5 h / Severity Scores (10 μM) 5 h / Descriptors (10 µM) 24 h / Severity Scores (10 μM) 24 h / Descriptors (10 µM) 48 h / Severity Scores (10 μM) 48 h: adult S. mansoni; for Descriptors (10 µM) 1 h / Descriptors (10 µM) 5 h / Descriptors (10 µM) 24 h / Descriptors (10 µM) 48 h: phenotypic descriptors; for Severity Scores (10 μM) 1 h / Severity Scores (10 μM) 5 h / Severity Scores (10 μM) 24 h / Severity Scores (10 μM) 48 h: scale 0 (no activity) to 4 (maximal activity); for bioactivity against adult S. mansoni: adult schistosomes; for Severity Scores (10 μM) 1 h / Severity Scores (10 μM) 5 h / Severity Scores (10 μM) 24 h / Severity Scores (10 μM) 48 h / bioactivity against adult S. mansoni: 10 μM
How it was run: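 Adult S. mansoni (NMRI isolate, ≥42 days old) were co-incubated with compounds and changes in motility, density, shape and adherence recorded visually over time and concentration. Descriptors converted to severity scores from 0 (no activity) to 4 (maximal).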

[4] = Log D7.4 shake-flask octanol-water; format: physicochemical; details: pH 7.4
[5] = human liver microsomes, intrinsic clearance

Row | SMILES | fraction unbound at 10 µM [1] | hepatocyte CLint (Rat hepatocyte Clint) [µL/min/1e6 cells] | microsomal CLint [2, 5] [µL/min/mg] | solubility [3] [µM] | Descriptors (10 µM) 1 h (adult S. mansoni) | Severity Scores (10 μM) 1 h (adult S. mansoni) | Descriptors (10 µM) 5 h (adult S. mansoni) | Severity Scores (10 μM) 5 h (adult S. mansoni) | Descriptors (10 µM) 24 h (adult S. mansoni) | Severity Scores (10 μM) 24 h (adult S. mansoni) | Descriptors (10 µM) 48 h (adult S. mansoni) | Severity Scores (10 μM) 48 h (adult S. mansoni) | bioactivity against adult S. mansoni (adult S. mansoni) | logD [4] | fraction unbound [1] | improved metabolic stability in comparison to 8a ([2]; relative to 8a) [fold] | RH CLint (Rat hepatocyte Clint) [µL/min/10^6 cells] | HLM Clint [2, 5] [μL/min/mg protein]
1 | c1cnc(Nc2ccnc3cc(-c4cnc(N5CCCNCC5)nc4)ccc23)cn1 [4g] | 0.37 | 4 | 19 | 53 (≈ 21.1 µg/mL) | none | 0 | none | 0 | none | 0 | none | 0 | bioactivity of this series was not observed | 1.8 |  |  |  | 
2 | CN1CCCN(c2ncc(-c3ccc4c(Nc5ccncn5)ccnc4c3)cn2)CC1 [5c] | 0.34 | 82 | 74 | 930 (≈ 384 µg/mL) | none | 0 | none | 0 | none | 0 | none | 0 | complete loss in activity | 2.2 |  |  |  | 
3 | COc1ccc(Nc2ccnc3cc(-c4ccc(S(=O)(=O)N5CCCN(C)CC5)cc4)ccc23)cc1Cl [5e] | 0.01 | 15 | 300 | 0.3 (≈ 0.161 µg/mL) | none | 0 | none | 0 | none | 0 | none | 0 | complete loss of bioactivity | 4.4 |  |  |  | 
4 | CN1CCCN(S(=O)(=O)c2ccc(-c3ccc4c(Nc5ccc(Cl)cn5)ccnc4c3)cc2)CC1 [5f] | < 0.01 | 30 | 300 | 4 (≈ 2.03 µg/mL) |  | 2 | S, on sides | 2 | Dark, S | 2 | Dark, S | 2 | moderate bioactivity recorded after 1 h | 4.5 |  |  |  | 
5 | Cc1ccc2[nH]c3c4ccc(-c5cnc(N6CCCN(C)CC6)nc5)cc4ncc3c2c1 [6c] | < 0.01 | 7 | 130 | 14 (≈ 5.92 µg/mL) |  | 3 |  | 4 |  | 4 |  | 4 | severe bioactivity after 1 h | 5 |  |  |  | 
6 | COc1ccc(NC(=O)c2ccc(-c3cnc(N4CCN(C)CC4)nc3)cc2O)cc1Cl [7a] | < 0.01 | 300 | 44 | 5 (≈ 2.27 µg/mL) | none | 0 | none | 0 | none | 0 |  |  | complete loss of activity | 3.8 |  |  |  | 
7 | COc1ccc(NC(=O)c2ccc(-c3ccc(S(=O)(=O)N4CCN(C)CC4)cc3)cc2O)cc1Cl [7c] | < 0.01 | 300 | 62 | 6 (≈ 3.1 µg/mL) | none | 0 |  | 3 |  | 2 |  |  | phenotypic response after 5 h | 3.9 |  |  |  | 
8 | COc1ccc(NC(=O)c2ccc(-c3cccc(N4CCOCC4)c3)cc2O)cc1Cl [7d] | < 0.01 | 300 | 12 | 0.1 (≈ 0.0439 µg/mL) | S, on sides | 2 | S, on sides | 2 | S, on sides, dark | 3 |  | 4 | phenotypic response after 1 h which increased in severity over time | 4.7 |  |  |  | 
9 | COc1ccc(NC(=O)c2ccc(-c3cccc(N4CCOCC4)c3)cc2N)cc1Cl [7e] | < 0.01 | 4.4 | 59 | 0.6 (≈ 0.263 µg/mL) | none | 0 | none | 0 | S, on sides | 2 |  | 2 | bioactivity after 24 h | 3.6 |  |  |  | 
10 | Cc1cc2c(Nc3cnccn3)ccnc2cc1-c1cnc(N2CCCNCC2)nc1 [8e] |  | < 1 |  |  | none | 0 | none | 0 | none | 0 | none | 0 | inactive against schistosomes | 2.3 | 0.3 | 10 |  | 
11 | Cc1c(-c2cnc(N3CCCN(C)CC3)nc2)ccc2c(Nc3cnccn3)ccnc12 [9b] |  | 27 |  |  | none | 0 | none | 0 | none | 0 | none | 0 | no bioactivity | 2.5 | 0.18 |  |  | 
12 | CCCN1CCCN(c2ncc(-c3ccc4c(Nc5cnccn5)ccnc4c3C)cn2)CC1 [9d] |  | 36 |  |  |  | 1 |  | 1 | Unc, deg | 4 | Unc, deg | 4 | strongly bioactive by 24 h | 3.3 | 0.06 |  |  | 
13 | Cc1c(-c2cnc(N3CCCNCC3)nc2)ccc2c(Nc3cnccn3)ccnc12 [9e] |  | 5.3 |  |  |  | 0 |  | 2 |  | 4 |  | 4 | phenotypic response after 5 h | 1.6 | 0.24 |  |  | 
14 | Fc1cccc(COc2ccc(Nc3ncnc4ccc(-c5cccc(N6CCOCC6)c5)cc34)cc2Cl)c1 [compound 2] | < 0.01 |  |  | < 1 |  |  |  |  |  |  |  |  |  |  |  |  | 44 | 63
